Earlier results, collected in patent US7517540B2, “Cranberry seed oil extract and compositions containing components thereof” (priority 1999, dated 2009).

Legend:
MDA-MB-435 = settings: for Inhibition of proliferation, MDA-MB-435 (Table 5): alone, 1:1 or 1:1:1 combinations; for IC50, inhibition of proliferation of MDA-MB-435: MDA-MB-435 (estrogen receptor-negative), combinations with tamoxifen 1:1
MCF-7 = settings: for Inhibition of proliferation, MCF-7 (Table 5): alone, 1:1 or 1:1:1 combinations; for IC50, inhibition of proliferation of MCF-7: MCF-7 (estrogen receptor-positive), combinations with tamoxifen 1:1
[1] = fed to hypercholesterolemic chicken

IC50, inhibition of proliferation of MDA-MB-435 (MDA-MB-435) [µg/mL] | IC50, inhibition of proliferation of MCF-7 (MCF-7) [µg/mL] | Structure (SMILES) | Inhibition of proliferation, MDA-MB-435 (Table 5) (MDA-MB-435) | Inhibition of proliferation, MCF-7 (Table 5) (MCF-7) | Hypocholesterolemic potency compared [1]
– | – | COc1ccc(-c2cc(=O)c3c(OC)c(OC)c(OC)c(OC)c3o2)cc1 [Tangeretin only, Tangeretin] | 0.5 | 0.4 | –
90 ± 3 | 2 ± 0.05 | CC(C)=CCC/C(C)=C/CC/C(C)=C/CC[C@]1(C)CCc2cc(O)cc(C)c2O1 [δ-Tocotrienol] | – | – | more potently hypocholesterolemic than α-tocopherol, TRF, or α-tocotrienol
90 ± 3 | 6 ± 0.3 | CC(C)=CCC/C(C)=C/CC/C(C)=C/CC[C@]1(C)CCc2c(C)c(O)c(C)c(C)c2O1 [α-Tocotrienol] | – | – | –
>1000 | 125 ± 3 | Cc1c(C)c2c(c(C)c1O)CC[C@@](C)(CCC[C@H](C)CCC[C@H](C)CCCC(C)C)O2 [α-Tocopherol] | – | – | –

Structure (SMILES) | IC50, inhibition of proliferation of MDA-MB-435 (MDA-MB-435) [µg/mL] | IC50, inhibition of proliferation of MCF-7 (MCF-7) [µg/mL] | Inhibition of proliferation, MDA-MB-435 (Table 5) (MDA-MB-435) | Inhibition of proliferation, MCF-7 (Table 5) (MCF-7) | Hypocholesterolemic potency compared [1]
CC(C)=CCC/C(C)=C/CC/C(C)=C/CC[C@]1(C)CCc2cc(O)c(C)c(C)c2O1 [γ-Tocotrienol] | 30 ± 2 | 2 ± 0.1 | 30 | 2 | more potently hypocholesterolemic than α-tocopherol, TRF, or α-tocotrienol
